From patent publication US8178530B2, “Imidazolopyrazine compounds useful for the treatment of degenerative and inflammatory diseases” (Janssen Pharmaceutica NV, priority 2006, dated 2012)

Columns and labels:
[1] = system: TNFα release by human PBMCs; test: Cytokine release by LPS-stimulated human PBMCs (TNFα ELISA); format: cell-based; conditions: PBMC, LPS 1 μg/mL, 24 hr
Procedure: Human peripheral blood mononuclear cells (PBMCs) are isolated from “buffy coats” prepared from the blood of healthy volunteers, isolated essentially according to method of Bøyum (1984). In brief, buffy coat is diluted 1:1 with 1×PBS (Gibco) and 30 mL is carefully put on top of 20 mL Lymphoprep™ (Lucron Bioproducts) in 50 mL Falcon tubes. After centrifugation (35 min, 400 g, 18° C.) the mononuclear cells are collected from the white interphase and washed 3 times with 1×PBS by resuspending and centrifugation (10 min, 200 g). Isolated PBMCs are finally resuspended in RPMI 1640 (Cat. No. 21875, Gibco) that is supplemented with 10% heat-inactivated FBS (Hyclone).
For the assay PBMCs are seeded at 2.5E6 cells/mL in 160 μL in 96-well plates (Nunc). Serial dilution of the test compounds are made first in DMSO (Sigma) and then diluted 50-fold in M199 medium (Gibco) containing 1% heat-inactivated FBS. Compounds are further 1/10 diluted in the assay plates to obtain final DMSO concentration of 0.2%. Cells are preincubated with the compounds for 1 hr at 37° C., 5% CO2. Then, cells are stimulated with LPS (Escherichia coli serotype 026:B6, Cat. No. L2654, Sigma) that is added in a volume of 20 μL to a final concentration of 1 μg/mL and cells are further cultured for 24 hr. The plates are centrifuged and the supernatant is collected and stored at −80° C. until analysis of appropriate dilutions in ELISAs.
The following 384-well chemiluminescent ELISA protocol was developed to measure TNFα levels in the supernatant: White Lumitrac 600 384-well plates (Greiner) are coated with (40 μL/well) anti-TNFα capture antibody (Cat. No. 551220, BD Pharmingen) that is diluted to 1 μg/mL in 1×PBS (Gibco). After overnight incubation at 4° C., plates are washed with 1×PBS (80 g NaCl, 2 g KCl (Sigma), 11.5 g Na2HPO4.7H2O and 2 g KH2PO4 in 10 L milliQ; pH 7.4) and blocked with 100 μL/well buffer B (1×PBS containing 1% BSA (Sigma), 5% sucrose (Sigma) and 0.05% NaN3 (Sigma)). After 4 hr incubation at RT, blocking buffer is removed and plates are washed once with PBST (1×PBS with 0.05% Tween-20 (Sigma)). Then, 40 μL of sample is transferred to the ELISA plates and plates are incubated at 4° C. Next day, plates are washed 3 times (twice with PBST and once with PBS) and 35 μL/well biotinylated anti-TNFα antibody (Cat. No. 554511, BD Pharmingen) diluted first to a concentration of 250 ng/ml in buffer D (1×PBS with 1% BSA) is added. After 2 h of incubation at RT, plates are washed as described above and 35 μL/well of a 1/2000 dilution of streptavidin-HRP conjugate (Cat. No. SNN2004, Biosource) in buffer D is added. After 45 min, plates are washed as described above and incubated for 5 min with 50 μL/well BM Chemiluminescence ELISA Substrate POD (Roche). Readout is performed on the Luminoscan Ascent Luminometer (Labsystems) with an integration time of 100 msec delivering raw data (RLU: relative luminescence units). The following controls are included in the experiments, a maximal signal control, in which the cells are activated by LPS but only the 0.2% DMSO vehicle (and thus no compound) is added. This control indicates the maximal level of TNFα that can be achieved in the test. A minimal signal control is also included in these experiments. Here, cells are not triggered. This control returns the basal TNFα levels produced by the PBMCs. The percent inhibition (PIN) of the TNFα release, achieved by the compounds is then calculated based on the RLU data returned by the ELISA with following formula: 100−[((TNFα level compound X at concentration Y−minimal TNFα levels)/(maximal TNFα levels−minimal TNFα levels))×100]. Where compounds are tested at 8 concentrations (1/3 serial dilution), EC50-values can be calculated by curve fitting of the means of the PIN data achieved for a compound at each test concentration. […]

MMP1 expression by SFs = test: 'MMP assay': MMP1 expression by 'complex trigger' activated synovial fibroblasts (MMP1 ELISA); format: cell-based, human; conditions: Homo sapiens, Fibroblast, RASFs, 48 hrs

| Compound | EC50 [1] [nM] | EC50 (MMP1 expression by SFs) [nM] |
| --- | --- | --- |
| c1cn2c(-c3cn[nH]c3)cnc(Nc3ccc(N4CCOCC4)cc3)c2n1 [Compound 1, (4-Morpholin-4-yl-phenyl)-[5-(1H-pyrazol-4-yl)-imidazo[1,2-a]pyrazin-8-yl]-amine] | > 1000 | > 1000 |
| NC(=O)c1ccc(-c2cnc(Nc3ccc(N4CCOCC4)cc3)c3nccn23)cc1 [Compound 13] | > 1000 | 501 to 1000 |
| O=c1cc(-c2cnc(Nc3ccc(N4CCOCC4)cc3)c3nccn23)cc[nH]1 [Compound 85, 4-[8-(4-Morpholin-4-yl-phenylamino)imidazo[1,2-a]pyrazin-5-yl]-1H-pyridin-2-one] | > 1000 | 501 to 1000 |
| CN1CCN(c2ccc(Nc3ncc(-c4cc[nH]c(=O)c4)n4ccnc34)cc2)CC1 [Compound 102, 4-{8-[4-(4-Methylpiperazin-1-yl)-phenylamino]imidazo[1,2-a]pyrazin-5-yl}-1H-pyridin-2-one] | > 1000 | > 1000 |
| NC(=O)c1ccc(-c2cnc(Nc3ccc(N4CCOCC4)cc3)c3nccn23)s1 [Compound 152] | 101 to 500 | 101 to 500 |
| NC(=O)c1cc(-c2cnc(Nc3ccc(N4CCOCC4)cc3)c3nccn23)cs1 [Compound 177, 4-[8-(4-Morpholin-4-yl-phenylamino)-imidazo[1,2-a]pyrazin-5-yl]-thiophene-2-carboxylic acid amide] | > 1000 | 101 to 500 |
| O=C1NCc2cc(-c3cnc(Nc4ccc(N5CCOCC5)cc4)c4nccn34)ccc21 [Compound 178, 5-[8-(4-Morpholin-4-yl-phenylamino)-imidazo[1,2-a]pyrazin-5-yl]-2,3-dihydro-isoindol-1-one] | 1 to 100 | 101 to 500 |
| NC(=O)c1coc(-c2cnc(Nc3ccc(N4CCOCC4)cc3)c3nccn23)c1 [Compound 179, 5-[8-(4-Morpholin-4-yl-phenylamino)-imidazo[1,2-a]pyrazin-5-yl]-furan-3-carboxylic acid amide] | > 1000 | 101 to 500 |
| NC(=O)c1cc(-c2cnc(Nc3ccc(N4CCOCC4)cc3)c3nccn23)co1 [Compound 203] | > 1000 | 501 to 1000 |
